Data taken from patent US20130072430A1, “METHODS FOR TREATMENT OR PROPHYLAXIS OF KIDNEY OR LIVER DYSFUNCTION” (NPS PHARMACEUTICALS, INC., priority 2010, published 2013).

Tested on: Human patients with short bowel syndrome
Experiment: Example 1: kidney diagnostic biomarkers (urea nitrogen, creatinine, GFR) in short bowel syndrome patients, every four weeks for 24 weeks
Assay type: in vivo
Parameters: CREATININE (RATE BLANKED) Change from Baseline, Median / GFR, Median / GFR Change from Baseline, Median / UREA NITROGEN, Median / UREA NITROGEN Change from Baseline, Median: unit not given here
Conditions: for CREATININE (RATE BLANKED), Median: unit assumed
Method: Human patients with short bowel syndrome were divided into three groups: a control group (16 total individuals) to receive placebo, an experimental group (35 total individuals) to receive teduglutide at 0.05 mg/kg/day throughout the study, and an experimental group (32 total individuals) to receive teduglutide at 0.1 mg/kg/day throughout the study. Patients were treated by subcutaneous injection of placebo or the appropriate dose of teduglutide. As individuals with short bowel syndrome are likely to experience associated liver and kidney disease, known biomarkers of liver and kidney function were monitored every four weeks, for 24 weeks. The liver biomarkers tested included total bilirubin, ALT and AST and ALP. The kidney biomarkers tested included urea nitrogen, creatinine and GFR. Before administration of placebo or teduglutide, diagnostic biomarker levels were tested to establish a baseline for each individual.
To visualize the effect of GLP-2 on the levels of the diagnostic biomarkers, the average change from baseline was calculated for the placebo and teduglutide treated groups for each visit after a baseline was established. The average change from baseline of each group is depicted in FIGS. […]. The numerical figures for each diaanostic biomarker at each time point are depicted in Table 1.
The raw data for this sorting is reproduced in Table 2 below.

How did the “GFR Change from Baseline, Mean (SD)” value (0.05 mg/kg/day, DW24) turn out when `CC[C@H](C)[C@H](NC(=O)[C@H](Cc1ccccc1)NC(=O)[C@H](CC(=O)O)NC(=O)[C@H](CCCNC(=N)N)NC(=O)[C@H](C)NC(=O)[C@H](C)NC(=O)[C@H](CC(C)C)NC(=O)[C@H](CC(N)=O)NC(=O)[C@H](CC(=O)O)NC(=O)[C@H](CC(C)C)NC(=O)[C@@H](NC(=O)[C@@H](NC(=O)[C@H](CC(N)=O)NC(=O)[C@H](CCSC)NC(=O)[C@H](CCC(=O)O)NC(=O)[C@H](CC(=O)O)NC(=O)[C@H](CO)NC(=O)[C@H](Cc1ccccc1)NC(=O)[C@H](CO)NC(=O)CNC(=O)[C@H](CC(=O)O)NC(=O)CNC(=O)[C@@H](N)Cc1c[nH]cn1)[C@@H](C)O)[C@@H](C)CC)C(=O)N[C@@H](CC(N)=O)C(=O)N[C@@H](Cc1c[nH]c2ccccc12)C(=O)N[C@@H](CC(C)C)C(=O)N[C@H](C(=O)N[C@@H](CCC(N)=O)C(=O)N[C@H](C(=O)N[C@@H](CCCCN)C(=O)N[C@H](C(=O)N[C@H](C(=O)N[C@@H](CC(=O)O)C(=O)O)[C@@H](C)O)[C@@H](C)CC)[C@@H](C)O)[C@@H](C)CC` [teduglutide] was run?
Its value is 3.7 (12.81).

What about the “GFR Change from Baseline, Median” value (0.05 mg/kg/day, DW24) of the same compound?
Its value is 1.7.

And the “GFR, Mean (SD)” value (0.05 mg/kg/day, DW24)?
Its value is 89.7 (41.28).

And the “GFR, Median” value (0.05 mg/kg/day, DW24)?
Its value is 78.1.

What about the “UREA NITROGEN Change from Baseline, Mean (SD)” value (from here on “UREA NITROGEN Change … (SD)”) (0.05 mg/kg/day, DW24) of the same compound?
Its value is −0.6 (2.02).

What about the “UREA NITROGEN Change from Baseline, Median” value (from here on “UREA NITROGEN Change … Median”) (0.05 mg/kg/day, DW24) of the same compound?
Its value is −0.7.

What about the “UREA NITROGEN, Mean (SD)” value (0.05 mg/kg/day, DW24) of the same compound?
The value was 5.0 (1.88).

What about the “UREA NITROGEN, Median” value (0.05 mg/kg/day, DW24) of the same compound?
Its value is 4.9.

What about the CREATININE (RATE BLANKED), Median (0.05 mg/kg/day, DW24) of the same compound?
Its CREATININE (RATE BLANKED), Median is 80 µmol/L.

And the “CREATININE (RATE BLANKED) Change from Baseline, Mean (SD)” value (“CREATININE (RATE BLANKED) Change … (SD)” below) (0.10 mg/kg/day, DW4)?
Its value is −1.8 (10.49).

And the “CREATININE (RATE BLANKED) Change from Baseline, Median” value (0.10 mg/kg/day, DW4)?
Its value is −0.5.

And the “CREATININE (RATE BLANKED), Mean (SD)” value (0.10 mg/kg/day, DW4)?
The value was 81.0 (21.62).

What about the “GFR Change from Baseline, Mean (SD)” value (0.10 mg/kg/day, DW4) of the same compound?
Its value is 3.6 (11.81).

And the “GFR Change from Baseline, Median” value (0.10 mg/kg/day, DW4)?
The value was 3.1.

And the “GFR, Mean (SD)” value (0.10 mg/kg/day, DW4)?
Its value is 80.3 (25.98).

And the “GFR, Median” value (0.10 mg/kg/day, DW4)?
Its value is 75.6.

What about the “UREA NITROGEN Change … (SD)” value (0.10 mg/kg/day, DW4) of the same compound?
The value was 0.3 (1.22).

And the “UREA NITROGEN Change … Median” value (0.10 mg/kg/day, DW4)?
The value was 0.2.

What about the “UREA NITROGEN, Mean (SD)” value (0.10 mg/kg/day, DW4) of the same compound?
Its value is 6.4 (2.19).

What about the “UREA NITROGEN, Median” value (0.10 mg/kg/day, DW4) of the same compound?
The value was 6.3.

And the CREATININE (RATE BLANKED), Median (0.10 mg/kg/day, DW4)?
The CREATININE (RATE BLANKED), Median was 83 µmol/L.

What about the “CREATININE (RATE BLANKED) Change … (SD)” value (0.10 mg/kg/day, DW8) of the same compound?
The value was 1.2 (10.40).

What about the “CREATININE (RATE BLANKED) Change from Baseline, Median” value (0.10 mg/kg/day, DW8) of the same compound?
Its value is 0.0.

And the “CREATININE (RATE BLANKED), Mean (SD)” value (0.10 mg/kg/day, DW8)?
Its value is 84.2 (21.41).

What about the “GFR Change from Baseline, Mean (SD)” value (0.10 mg/kg/day, DW8) of the same compound?
Its value is 0.6 (10.87).

What about the “GFR Change from Baseline, Median” value (0.10 mg/kg/day, DW8) of the same compound?
Its value is 0.2.

What about the “GFR, Mean (SD)” value (0.10 mg/kg/day, DW8) of the same compound?
Its value is 77.9 (25.63).

And the “GFR, Median” value (0.10 mg/kg/day, DW8)?
The value was 76.9.

And the “UREA NITROGEN Change … (SD)” value (0.10 mg/kg/day, DW8)?
The value was 0.2 (1.20).

And the “UREA NITROGEN Change … Median” value (0.10 mg/kg/day, DW8)?
The value was 0.1.

What about the “UREA NITROGEN, Mean (SD)” value (0.10 mg/kg/day, DW8) of the same compound?
Its value is 6.4 (2.00).

And the “UREA NITROGEN, Median” value (0.10 mg/kg/day, DW8)?
The value was 6.4.

And the CREATININE (RATE BLANKED), Median (0.10 mg/kg/day, DW8)?
The CREATININE (RATE BLANKED), Median was 86 µmol/L.

And the “CREATININE (RATE BLANKED) Change … (SD)” value (0.10 mg/kg/day, DW12)?
The value was 2.8 (12.77).

And the “CREATININE (RATE BLANKED) Change from Baseline, Median” value (0.10 mg/kg/day, DW12)?
Its value is 6.5.

What about the “CREATININE (RATE BLANKED), Mean (SD)” value (0.10 mg/kg/day, DW12) of the same compound?
Its value is 86.4 (25.37).

And the “GFR Change from Baseline, Mean (SD)” value (0.10 mg/kg/day, DW12)?
The value was 0.2 (15.54).

And the “GFR Change from Baseline, Median” value (0.10 mg/kg/day, DW12)?
Its value is −0.5.

And the “GFR, Mean (SD)” value (0.10 mg/kg/day, DW12)?
The value was 77.3 (25.57).

What about the “GFR, Median” value (0.10 mg/kg/day, DW12) of the same compound?
The value was 68.7.

And the “UREA NITROGEN Change … (SD)” value (0.10 mg/kg/day, DW12)?
The value was 0.1 (1.47).

What about the “UREA NITROGEN Change … Median” value (0.10 mg/kg/day, DW12) of the same compound?
The value was 0.0.

And the “UREA NITROGEN, Mean (SD)” value (0.10 mg/kg/day, DW12)?
The value was 6.3 (2.08).

What about the “UREA NITROGEN, Median” value (0.10 mg/kg/day, DW12) of the same compound?
The value was 5.9.

What about the CREATININE (RATE BLANKED), Median (0.10 mg/kg/day, DW12) of the same compound?
The CREATININE (RATE BLANKED), Median was 84.5 µmol/L.

And the “CREATININE (RATE BLANKED) Change … (SD)” value (0.10 mg/kg/day, DW16)?
Its value is 0.6 (11.86).

And the “CREATININE (RATE BLANKED) Change from Baseline, Median” value (0.10 mg/kg/day, DW16)?
Its value is 0.0.

What about the “CREATININE (RATE BLANKED), Mean (SD)” value (0.10 mg/kg/day, DW16) of the same compound?
The value was 84.2 (21.85).

What about the “GFR Change from Baseline, Mean (SD)” value (0.10 mg/kg/day, DW16) of the same compound?
Its value is 1.1 (13.73).

And the “GFR Change from Baseline, Median” value (0.10 mg/kg/day, DW16)?
The value was 1.1.

What about the “GFR, Mean (SD)” value (0.10 mg/kg/day, DW16) of the same compound?
Its value is 78.3 (23.12).

And the “GFR, Median” value (0.10 mg/kg/day, DW16)?
The value was 77.5.

What about the “UREA NITROGEN Change … (SD)” value (0.10 mg/kg/day, DW16) of the same compound?
Its value is −0.2 (1.47).

And the “UREA NITROGEN Change … Median” value (0.10 mg/kg/day, DW16)?
The value was 0.0.

What about the “UREA NITROGEN, Mean (SD)” value (0.10 mg/kg/day, DW16) of the same compound?
Its value is 6.0 (1.86).

And the “UREA NITROGEN, Median” value (0.10 mg/kg/day, DW16)?
Its value is 6.1.

And the CREATININE (RATE BLANKED), Median (0.10 mg/kg/day, DW16)?
Its CREATININE (RATE BLANKED), Median is 87.5 µmol/L.

What about the “CREATININE (RATE BLANKED) Change … (SD)” value (0.10 mg/kg/day, DW20) of the same compound?
Its value is 2.6 (12.05).

What about the “CREATININE (RATE BLANKED) Change from Baseline, Median” value (0.10 mg/kg/day, DW20) of the same compound?
The value was 0.0.

What about the “CREATININE (RATE BLANKED), Mean (SD)” value (0.10 mg/kg/day, DW20) of the same compound?
The value was 86.6 (20.44).

And the “GFR Change from Baseline, Mean (SD)” value (0.10 mg/kg/day, DW20)?
The value was −0.6 (16.16).

What about the “GFR Change from Baseline, Median” value (0.10 mg/kg/day, DW20) of the same compound?
The value was 1.5.

And the “GFR, Mean (SD)” value (0.10 mg/kg/day, DW20)?
The value was 77.3 (26.45).
